Reference: article PMC6010013, “Synthesis, physiochemical property and antimicrobial activity of novel quaternary ammonium salts” (Journal of Enzyme Inhibition and Medicinal Chemistry, 2017)
Counter-ions that a name gives are not always drawn.

Legend:
normal cell lines = system: normal cell lines; set-up: method as in PMID 25215430; conditions: cell line not given; cited from earlier work

Row | melting point | Compound | Cytotoxicity IC50 (normal cell lines)
1 | 77 to 78 °C | Cc1nnc(SCCCCCCCCCC[N+](C)(CCO)CCO)s1 (as salt: bromide) [Compound 16c] | –
2 | 78 to 80 °C | CC(C)(C)c1ccc(-c2nnc(SCCCCCC[N+](C)(CCO)CCO)o2)cc1 (as salt: bromide) [Compound 7a] | –
3 | 128 to 129 °C | C[N+](CCO)(CCO)CCCCCCCCCCSc1nc2ccccc2o1 (as salt: bromide) [Compound 10c] | –
4 | 95 to 96 °C | Cc1nnc(SCCCCCCCCCCCC[N+](C)(CCO)CCO)s1 (as salt: bromide) [Compound 16d] | –
5 | – | CCCCCCCCCCCC[N+](C)(CCO)CCO [Compound C12QAS, N-methyl-N-dodecyl-N,N-bis(2-hydroxyethyl) ammonium bromides] | ca. 4.00 μg/mL
6 | 142 to 143 °C | C[N+](CCO)(CCO)CCCCCCSc1nc2ccccc2s1 (as salt: bromide) [Compound 13a] | –
7 | 71 to 72 °C | CC(C)(C)c1ccc(-c2nnc(SCCCCCCCC[N+](C)(CCO)CCO)o2)cc1 (as salt: bromide) [Compound 7b] | –
8 | 125 to 127 °C | C[N+](CCO)(CCO)CCCCCCCCCCCCSc1nc2ccccc2o1 (as salt: bromide) [Compound 10d] | –
9 | 111 to 112 °C | C[N+](CCO)(CCO)CCCCCCCCCCSc1nc2ccccc2s1 (as salt: bromide) [Compound 13c] | –
10 | 74 to 75 °C | Cc1nnc(SCCCCCCCC[N+](C)(CCO)CCO)s1 (as salt: bromide) [Compound 16b] | –
11 | 56 to 57 °C | Cc1nnc(SCCCCCC[N+](C)(CCO)CCO)s1 (as salt: bromide) [Compound 16a] | –
12 | 87 to 89 °C | C[N+](CCO)(CCO)CCCCCCCCSc1nc2ccccc2s1 (as salt: bromide) [Compound 13b] | –
13 | 81 to 82 °C | C[N+](CCO)(CCO)CCCCCCCCSc1nnc(-c2ccc(F)cc2)o1 (as salt: bromide) [Compound 5b] | –
14 | 125 to 127 °C | C[N+](CCO)(CCO)CCCCCCCCSc1nc2ccccc2o1 (as salt: bromide) [Compound 10b] | –
15 | 78 to 80 °C | CC(C)(C)c1ccc(-c2nnc(SCCCCCCCCCC[N+](C)(CCO)CCO)o2)cc1 (as salt: bromide) [Compound 7c] | –

Row | Compound | melting point | Cytotoxicity IC50 (normal cell lines)
16 | C[N+](CCO)(CCO)CCCCCCSc1nnc(-c2ccc(C(F)(F)F)cc2)o1 (as salt: bromide) [Compound 6a] | 93 to 94 °C | –
17 | C[N+](CCO)(CCO)CCCCCCCCCCSc1nnc(-c2ccc(F)cc2)o1 (as salt: bromide) [Compound 5c] | 102 to 103 °C | –
18 | C[N+](CCO)(CCO)CCCCCCCCSc1nnc(-c2ccc(C(F)(F)F)cc2)o1 (as salt: bromide) [Compound 6b] | 78 to 80 °C | –
19 | C[N+](CCO)(CCO)CCCCCCSc1nnc(-c2ccc(F)cc2)o1 (as salt: bromide) [Compound 5a] | 74 to 76 °C | –
20 | C[N+](CCO)(CCO)CCCCCCCCCCCCSc1nnc(-c2ccc(F)cc2)o1 (as salt: bromide) [Compound 5d] | 98 to 100 °C | –
21 | C[N+](CCO)(CCO)CCCCCCCCCCCCSc1nc2ccccc2s1 (as salt: bromide) [Compound 13d] | 106 to 107 °C | –
